Assay results: patent publication US9409952B2, “Peptide-compound cyclization method” (Chugai Seiyaku Kabushiki Kaisha, priority 2011, dated 2016)
Starred links: 1 amine or outer side, 2 acyl side, 3 side chain; linkers in the order of their positions; H or OH if unused. Positions of bridges follow the written chain, without caps; N, C: chain ends. Non-standard residues stand in square brackets, D forms with d. Residues, ends and D or L forms follow the SMILES beside them. ξ: configuration not given here. *: point of attachment. Cys(O)(CH2CO) = O=C([C@H](C[S+]([O-])CC(=O)[*:3])N[*:1])[*:2]; NMeF = CN[C@@H](Cc1ccccc1)C(=O)O; NMeI = CC[C@H](C)[C@H](NC)C(=O)O; NMeL = CN[C@@H](CC(C)C)C(=O)O; NMeA = CN[C@@H](C)C(=O)O; Piperidide = C1CCN(*)CC1; {Puro} = puromycin; ξC = NC(CS)C(=O)O; Sar = CNCC(=O)O; tBu = CC(C)(C)*

How the values were obtained:
[1] = 2 h, pH 7.1
[2] = Metabolic stability in mouse hepatic microsome; type: in vitro ADME; details: for Hepatic Microsome CLh, int (Mouse) In the absence of NADPH: without NADPH; for microsomal CLint at 1 uM: male, liver microsomes, pH 7.4; for Mouse Hepatic Microsome CLh, int: Table 9, thioether versus sulfoxide
Description: (§1) The obtained compound was metabolically reacted at a concentration of 2 uM with mouse serum (male/female mixed, Valley Biomedical, USA) (adjusted to pH 7.4 with 33.5 mM HEPES buffer) for two hours. Deproteinization treatment with acetonitrile was provided over time, the amount of the remaining unchanged compound was analyzed using LC/MS, and the metabolic half-life (t1/2) was calculated. A microsome solution prepared at 0.5 mg protein/mL from mouse hepatic microsome and small intestinal microsome (male, XENOTECH, USA) using 100 mM phosphate buffer (pH 7.4) was metabolically reacted with the compound at a concentration of 1 uM for 30 minutes in the presence or absence of NADPH. Deproteinization treatment with acetonitrile was provided over time, the amount of the remaining unchanged compound was analyzed using LC/MS, and the hepatic-intrinsic clearance (CLh, int) and the small intestinal-intrinsic clearance (CLg, int) were calculated (Table 7). Such peptides were sufficiently slowly metabolized by hydrolysis with peptidases or the like in mouse sera and microsomes, contrary to peptides composed of natural amino acids having low lipophilicity.
(§2) Metabolic stability tests were carried out in the same manner as shown in 2-1.

[3] = Metabolic stability in human hepatic microsome; type: in vitro ADME; details: for microsomal CLint at 1 uM: pH 7.4, Hepatic Microsome CLhint Human
[4] = Serum stability test in mouse serum; type: in vitro ADME; details: both sexes, pH 7.4, two hours, read-out: Serum stability t1/2 (Mouse)
Description: as §1

[5] = Metabolic stability in mouse small intestinal microsome; type: in vitro ADME; details: for Intestinal Microsome CLg, int Mouse: Table 8, mouse; for oxidative metabolic rate relative to the parent thioether, small intestinal microsomes: compared with Compound P-112
Description: as §1, §2

[6] = 0.5 mg protein/mL, 1 uM, 30 minutes
[7] = mouse, 0.5 mg protein/mL, 1 uM, 30 minutes, with NADPH, read-out: Hepatic Microsome CLh, int (Mouse) In the presence of NADPH

Row | Molecule | amount of remaining RNA compound under desulfurization reaction condition [1] | Hepatic Microsome CLh, int (Mouse) In the absence of NADPH [2, 6] [ul/min/mg Protein] | Hepatic Microsome CLhint Mouse ([2]; Table 8, mouse) [ul/min/mg Protein] | microsomal CLint at 1 uM [2, 7] [µL/min/mg] | Hepatic microsome CLhint (Human) In the absence of NADPH [3] [ul/min/mg Protein] | Hepatic microsome CLhint (Human) In the presence of NADPH [3] [ul/min/mg Protein] | microsomal CLint at 1 uM ([3]; human, microsomes) [µL/min/mg] | half-life at 2 uM [4] [h] | Intestinal Microsome CLg, int Mouse [5] [ul/min/mg Protein] | Mouse Hepatic Microsome CLh, int [2] [ul/min/mg Protein] | oxidative metabolic rate relative to the parent thioether, mouse hepatic microsomes ([2]; compared with Compound P-112) [times] | microsomal CLint at 1 uM ([2]; Table 8, mouse, read-out: Hepatic Microsome CLhint Mouse) [µL/min/mg] | oxidative metabolic rate relative to the parent thioether, human hepatic microsomes [3] | oxidative metabolic rate relative to the parent thioether, small intestinal microsomes [5] | Hepatic Microsome CLhint Human ([3]; human, microsomes, 1 uM, pH 7.4) [ul/min/mg Protein]
1 | 5′-AGCUUAGUCA-puromycin-3′ (3' {Puro}, sugars by position and backbone not given here) [Compound RP-1] | not changed | – | – | – | – | – | – | – | – | – | – | – | – | – | –
2 | CC(C)C[C@H]1C(=O)N[C@@H](COC(C)(C)C)C(=O)N[C@H](C(=O)N2CCCCC2)CSCC(=O)N(C)[C@@H](C)C(=O)N(C)[C@@H](Cc2ccccc2)C(=O)N(C)[C@@H](CC(C)C)C(=O)N[C@@H]([C@@H](C)O)C(=O)N(C)CC(=O)N1C [Compound P-102, Ac*-MeAla-MePhe-MeLeu-Thr-MeGly-MeLeu-Ser(tBu)-Cys*-piperidine] ({CH2CO}-[NMeA][NMeF][NMeL]T[Sar][NMeL]S(tBu)C-Piperidide; thioether N-8) | – | 0 | 55.1 | 55.1 | 3 | 124 | 124 | > 60 | 79.0 | – | – | – | – | – | –
3 | CC[C@H](C)[C@H]1C(=O)N[C@H](C(=O)N2CCCCC2)CSCC(=O)N(C)[C@@H](Cc2ccccc2)C(=O)N(C)[C@@H](CC(C)C)C(=O)N[C@@H]([C@@H](C)O)C(=O)N(C)CC(=O)N(C)[C@@H](CC(C)C)C(=O)N[C@@H](COC(C)(C)C)C(=O)N1C [Compound P-103, Ac*-MePhe-MeLeu-Thr-MeGly-MeLeu-Ser(tBu)-MeIle-Cys*-piperidine] ({CH2CO}-[NMeF][NMeL]T[Sar][NMeL]S(tBu)[NMeI]C-Piperidide; thioether N-8) | – | 11.1 | 63.0 | 63 | 3 | 221 | 221 | > 60 | 66.3 | 63 | – | – | – | – | –
4 | CC[C@H](C)[C@H]1C(=O)N[C@H](C(=O)N2CCCCC2)CSCC(=O)N(C)[C@@H](C)C(=O)N(C)[C@@H](Cc2ccccc2)C(=O)N(C)[C@@H](CC(C)C)C(=O)N[C@@H]([C@@H](C)O)C(=O)N(C)CC(=O)N(C)[C@@H](CC(C)C)C(=O)N[C@@H](COC(C)(C)C)C(=O)N1C [Compound P-109, Ac*-MeAla-MePhe-MeLeu-Thr-MeGly-MeLeu-Ser(tBu)-MeIle-Cys*-piperidine] ({CH2CO}-[NMeA][NMeF][NMeL]T[Sar][NMeL]S(tBu)[NMeI]C-Piperidide; thioether N-9) | – | 10.3 | 57.4 | 57.4 | 11 | 158 | 158 | > 60 | 45.8 | – | – | – | – | – | –
5 | CC(C)C[C@H]1C(=O)N[C@@H](COC(C)(C)C)C(=O)N[C@H](C(=O)N2CCCCC2)CSCC(=O)N(C)[C@@H](Cc2ccccc2)C(=O)N(C)[C@@H](C)C(=O)N[C@@H](Cc2ccccc2)C(=O)N(C)[C@@H](CC(C)C)C(=O)N[C@@H]([C@@H](C)O)C(=O)N(C)CC(=O)N1C [Compound P-110, Ac*-MePhe-MeAla-Phe-MeLeu-Thr-MeGly-MeLeu-Ser(tBu)-Cys*-piperidine] ({CH2CO}-[NMeF][NMeA]F[NMeL]T[Sar][NMeL]S(tBu)C-Piperidide; thioether N-9) | – | 6.1 | – | 163 | – | – | – | > 60 | – | – | – | – | – | – | –
6 | CC[C@H](C)[C@H]1C(=O)N[C@H](C(=O)N2CCCCC2)CSCC(=O)N(C)[C@@H](C)C(=O)N[C@@H](Cc2ccccc2)C(=O)N(C)[C@@H](CC(C)C)C(=O)N[C@@H]([C@@H](C)O)C(=O)N(C)CC(=O)N(C)[C@@H](CC(C)C)C(=O)N[C@@H](COC(C)(C)C)C(=O)N1C [Compound P-111, Ac*-MeAla-Phe-MeLeu-Thr-MeGly-MeLeu-Ser(tBu)-MeIle-Cys*-piperidine] ({CH2CO}-[NMeA]F[NMeL]T[Sar][NMeL]S(tBu)[NMeI]C-Piperidide; thioether N-9) | – | 0 | – | 76.4 | – | – | – | > 60 | – | 76.4 | – | – | – | – | –
7 | CC[C@H](C)[C@H]1C(=O)NC(C(=O)N2CCCCC2)CSCC(=O)N(C)[C@@H](Cc2ccccc2)C(=O)N(C)[C@@H](C)C(=O)N(C)[C@@H](Cc2ccccc2)C(=O)N(C)[C@@H](CC(C)C)C(=O)N[C@@H]([C@@H](C)O)C(=O)N(C)CC(=O)N(C)[C@@H](CC(C)C)C(=O)N[C@@H](COC(C)(C)C)C(=O)N1C (stereo partly drawn) [Compound P-112, Ac*-MePhe-MeAla-MePhe-MeLeu-Thr-MeGly-MeLeu-Ser(tBu)-MeIle-Cys*-piperidine] ({CH2CO}-[NMeF][NMeA][NMeF][NMeL]T[Sar][NMeL]S(tBu)[NMeI][ξC]-Piperidide; thioether N-10) | – | 17.9 | 30.4 | 30.4 | – | – | 118 | > 60 | 25.9 | 30.4 | – | – | – | – | –
8 | CC[C@H](C)[C@H]1C(=O)N[C@H](C(=O)N2CCCCC2)C[S+]([O-])CC(=O)N(C)[C@@H](C)C(=O)N(C)[C@@H](Cc2ccccc2)C(=O)N(C)[C@@H](CC(C)C)C(=O)N[C@@H]([C@@H](C)O)C(=O)N(C)CC(=O)N(C)[C@@H](CC(C)C)C(=O)N[C@@H](COC(C)(C)C)C(=O)N1C (stereo partly drawn) [Compound P-114, (5S,8S,11S,14S,20S,23S,26S,29R)-8-benzyl-23-(tert-butoxymethyl)-26-((S)-sec-butyl)-14-((R)-1-hydroxyethyl)-11,20-diisobutyl-4,5,7,10,16,19,25-heptamethyl-29-(piperidine-1-carbonyl)-1-thia-4,7,10,13,16,19,22,25,28-nonaazacyclotriacontane-3,6,9,12,15,18,21,24,27-nonone 1-oxide] ([NMeA][NMeF][NMeL]T[Sar][NMeL]S(tBu)[NMeI][Cys(O)(CH2CO)]-Piperidide; lactam N-9) | – | – | – | – | – | – | 35.3 | – | 9.1 | – | 0.6 | 33.7 | about 0.3 times | 0.2 times | –
9 | CC[C@H](C)[C@H]1C(=O)N[C@H](C(=O)N2CCCCC2)CS(=O)(=O)CC(=O)N(C)[C@@H](C)C(=O)N(C)[C@@H](Cc2ccccc2)C(=O)N(C)[C@@H](CC(C)C)C(=O)N[C@@H]([C@@H](C)O)C(=O)N(C)CC(=O)N(C)[C@@H](CC(C)C)C(=O)N[C@@H](COC(C)(C)C)C(=O)N1C [Compound P-115, (5S,8S,11S,14S,20S,23S,26S,29R)-8-benzyl-23-(tert-butoxymethyl)-26-((S)-sec-butyl)-14-((R)-1-hydroxyethyl)-11,20-diisobutyl-4,5,7,10,16,19,25-heptamethyl-29-(piperidine-1-carbonyl)-1-thia-4,7,10,13,16,19,22,25,28-nonaazacyclotriacontane-3,6,9,12,15,18,21,24,27-nonone 1,1-dioxide] | – | – | 42.1 | – | – | – | – | – | 21.8 | 12.1 | – | – | – | about 0.5 times | 61.6
